Source: ChEMBL document CHEMBL1146341, “Synthesis and in vivo evaluation of [18F]-4-[5-(4-methylphenyl)-3-(trifluoromethyl)-1H-pyrazol-1-yl]benzenesulfonamide as a PET imaging probe for COX-2 expression” (Bioorg Med Chem, 2007)

Tests used:
[1] = Drug level in baboon plasma assessed as unmetabolized fractions after 2 mins; format: ADME, cell-free; details: papio hamadryas, read-out: Activity
[2] = Ratio of drug uptake in skull to caudate in baboon at 1.2 mCi after 115 mins; format: ADME; details: papio hamadryas, in vivo
[3] = Drug level in baboon plasma assessed as unmetabolized fractions after 4 mins; format: ADME, cell-free; details: papio hamadryas, read-out: Activity
[4] = Ratio of drug uptake in skeleton to brain in Sprague-Dawley rat at 0.2 mCi, iv after 112 mins; format: ADME, organism-based; details: in vivo
[5] = Ratio of drug uptake in skeleton to cerebellum in Sprague-Dawley rat at 0.2 mCi, iv after 112 mins; format: ADME, organism-based; details: in vivo
[6] = Ratio of drug uptake in skull to putamen in baboon at 1.2 mCi after 115 mins; format: ADME; details: papio hamadryas, in vivo
[7] = Drug level in baboon plasma assessed as unmetabolized fractions after 30 mins; format: ADME, cell-free; details: papio hamadryas, read-out: Activity
[8] = Drug level in baboon plasma assessed as unmetabolized fractions after 60 mins; format: ADME, cell-free; details: papio hamadryas, read-out: Activity
[9] = Ratio of drug uptake in skull to hippocampus in baboon at 1.2 mCi after 115 mins; format: ADME, tissue-based; details: papio hamadryas, in vivo
[10] = Drug level in baboon plasma assessed as unmetabolized fractions after 12 mins; format: ADME, cell-free; details: papio hamadryas, read-out: Activity
[11] = Ratio of drug uptake in skull to cingulate in baboon at 1.2 mCi after 115 mins; format: ADME; details: papio hamadryas, in vivo
[12] = Ratio of drug uptake in skull to thalamus in baboon at 1.2 mCi after 115 mins; format: ADME, tissue-based; details: papio hamadryas, in vivo
[13] = Ratio of drug uptake in skull to cerebellum in baboon at 1.2 mCi after 115 mins; format: ADME, tissue-based; details: papio hamadryas, in vivo
[14] = Ratio of drug uptake in skeleton to heart in Sprague-Dawley rat at 0.2 mCi, iv after 112 mins; format: ADME, organism-based; details: in vivo

Cc1ccc(-c2cc(C(F)(F)[18F])nn2-c2ccc(S(N)(=O)=O)cc2)cc1 showed a remaining at 2 min [1] of 93.2%, a Ratio [2] of 1.48 and a remaining at 4 min [3] of 84.9%. For the same compound, the Ratio [4] was 0.45, the Ratio [5] was 0.5 and the Ratio [6] was 1.46. For the same compound, the remaining at 0.5 h [7] was 30.2%, the remaining at 1 h [8] was 17% and the Ratio [9] was 1.41. The remaining at 0.2 h [10] was 47.5%, the Ratio [11] was 1.43 and the Ratio [12] was 1.6. It also gave a Ratio [13] of 1.2 and a Ratio [14] of 0.7.
